Species on record: Rattus norvegicus
Assay: DrugMatrix - Regimen: Daily Repeat
Format: toxicity, organism-based, Sprague-Dawley
Set-up: regimen Daily Repeat, gender Male, age 6-8 weeks
Details: in vivo, po, route oral GAVAGE, vehicle 100 % WATER; for ABSOLUTE BASOPHIL / ABSOLUTE EOSINOPHIL / ABSOLUTE LYMPHOCYTE / ABSOLUTE MONOCYTE / ABSOLUTE SEGMENTED NEUTROPHIL / BASOPHIL / EOSINOPHIL / ERYTHROCYTE COUNT / HEMATOCRIT / HEMOGLOBIN / LEUKOCYTE COUNT / LYMPHOCYTE / MEAN CORPUSCULAR HEMOGLOBIN / MEAN CORPUSCULAR HEMOGLOBIN CONCENTRATION / MEAN CORPUSCULAR VOLUME / MONOCYTE / NEUTROPHIL / NUCLEATED RED BLOOD CELLS / PLATELET COUNT: tissue Blood; for ALANINE AMINOTRANSFERASE / ALBUMIN / ALKALINE PHOSPHATASE / ASPARTATE AMINOTRANSFERASE / BLOOD UREA NITROGEN / CARBON DIOXIDE / CHLORIDE / CHOLESTEROL / CREATINE PHOSPHOKINASE / CREATININE / GLUCOSE / LACTATE DEHYDROGENASE / LIPASE / PHOSPHORUS / POTASSIUM / SODIUM / TOTAL BILIRUBIN / TOTAL PROTEIN / URIC ACID: tissue Plasma
[1] = 0 mg/kg, 72 h, dose level Control, time 3 day
[2] = 0 mg/kg, 120 h, dose level Control, time 5 day
[3] = 58 mg/kg, 72 h, dose level Low, time 3 day

SMILES: NC12CC3CC(CC(C3)C1)C2 [AMANTADINE]
- ABSOLUTE BASOPHIL [1]: 0 CELLS/uL
- ABSOLUTE EOSINOPHIL [1]: 58.83 CELLS/uL
- ABSOLUTE LYMPHOCYTE [1]: 11823.5 CELLS/uL
- ABSOLUTE MONOCYTE [1]: 169 CELLS/uL
- ABSOLUTE SEGMENTED NEUTROPHIL [1]: 815.33 CELLS/uL
- BASOPHIL [1]: 0%
- EOSINOPHIL [1]: 0.5%
- ERYTHROCYTE COUNT [1]: 5.52 x10E6/uL
- HEMATOCRIT [1]: 35.77%
- HEMOGLOBIN [1]: 14.28 G/DL
- LEUKOCYTE COUNT [1]: 12.87 x10E3/uL
- LYMPHOCYTE [1]: 91.67%
- MEAN CORPUSCULAR HEMOGLOBIN [1]: 25.92 pg
- MEAN CORPUSCULAR HEMOGLOBIN CONCENTRATION [1]: 39.95 G/DL
- MEAN CORPUSCULAR VOLUME [1]: 64.85 fL
- MONOCYTE [1]: 1.33%
- NEUTROPHIL [1]: 6.5%
- NUCLEATED RED BLOOD CELLS [1]: 0 /100WBC
- PLATELET COUNT [1]: 1246.17 x10E3/uL
- ALANINE AMINOTRANSFERASE [1]: 66 u/L
- ALBUMIN [1]: 4.25 G/DL
- ALKALINE PHOSPHATASE [1]: 416 u/L
- ASPARTATE AMINOTRANSFERASE [1]: 106.17 u/L
- BLOOD UREA NITROGEN [1]: 12.67 mg/dL
- CARBON DIOXIDE [1]: 31.83 mmol/L
- CHLORIDE [1]: 102.5 MEQ/L
- CHOLESTEROL [1]: 69 mg/dL
- CREATINE PHOSPHOKINASE [1]: 601.83 u/L
- CREATININE [1]: 0.18 mg/dL
- GLUCOSE [1]: 154.5 mg/dL
- LACTATE DEHYDROGENASE [1]: 301.83 u/L
- LIPASE [1]: 11.17 u/L
- PHOSPHORUS [1]: 12.08 mg/dL
- POTASSIUM [1]: 6.12 MEQ/L
- SODIUM [1]: 145.2 MEQ/L
- TOTAL BILIRUBIN [1]: 0.17 mg/dL
- TOTAL PROTEIN [1]: 6.1 G/DL
- URIC ACID [1]: 1.57 mg/dL
- ABSOLUTE BASOPHIL [2]: 0 CELLS/uL
- ABSOLUTE EOSINOPHIL [2]: 19.33 CELLS/uL
- ABSOLUTE LYMPHOCYTE [2]: 12577.83 CELLS/uL
- ABSOLUTE MONOCYTE [2]: 106.33 CELLS/uL
- ABSOLUTE SEGMENTED NEUTROPHIL [2]: 896.5 CELLS/uL
- BASOPHIL [2]: 0%
- EOSINOPHIL [2]: 0.17%
- ERYTHROCYTE COUNT [2]: 5.84 x10E6/uL
- HEMATOCRIT [2]: 36.88%
- HEMOGLOBIN [2]: 14.48 G/DL
- LEUKOCYTE COUNT [2]: 13.6 x10E3/uL
- LYMPHOCYTE [2]: 92.17%
- MEAN CORPUSCULAR HEMOGLOBIN [2]: 24.85 pg
- MEAN CORPUSCULAR HEMOGLOBIN CONCENTRATION [2]: 39.3 G/DL
- MEAN CORPUSCULAR VOLUME [2]: 63.23 fL
- MONOCYTE [2]: 0.83%
- NEUTROPHIL [2]: 6.83%
- NUCLEATED RED BLOOD CELLS [2]: 0 /100WBC
- PLATELET COUNT [2]: 1223.5 x10E3/uL
- ALANINE AMINOTRANSFERASE [2]: 55.33 u/L
- ALBUMIN [2]: 4.08 G/DL
- ALKALINE PHOSPHATASE [2]: 355.5 u/L
- ASPARTATE AMINOTRANSFERASE [2]: 87.67 u/L
- BLOOD UREA NITROGEN [2]: 15.33 mg/dL
- CARBON DIOXIDE [2]: 33.83 mmol/L
- CHLORIDE [2]: 99.67 MEQ/L
- CHOLESTEROL [2]: 72.17 mg/dL
- CREATINE PHOSPHOKINASE [2]: 268.33 u/L
- CREATININE [2]: 0.15 mg/dL
- GLUCOSE [2]: 152.5 mg/dL
- LACTATE DEHYDROGENASE [2]: 212.67 u/L
- LIPASE [2]: 10.83 u/L
- PHOSPHORUS [2]: 11.65 mg/dL
- POTASSIUM [2]: 6.73 MEQ/L
- SODIUM [2]: 142.43 MEQ/L
- TOTAL BILIRUBIN [2]: 0.23 mg/dL
- TOTAL PROTEIN [2]: 6.07 G/DL
- URIC ACID [2]: 1.7 mg/dL
- ABSOLUTE BASOPHIL [3]: 0 CELLS/uL
- ABSOLUTE EOSINOPHIL [3]: 0 CELLS/uL
- ABSOLUTE LYMPHOCYTE [3]: 14460 CELLS/uL
- ABSOLUTE MONOCYTE [3]: 391.33 CELLS/uL
- ABSOLUTE SEGMENTED NEUTROPHIL [3]: 1148.67 CELLS/uL
- BASOPHIL [3]: 0%
- EOSINOPHIL [3]: 0%
- ERYTHROCYTE COUNT [3]: 5.53 x10E6/uL
- HEMATOCRIT [3]: 35.03%
- HEMOGLOBIN [3]: 14 G/DL
- LEUKOCYTE COUNT [3]: 16 x10E3/uL
- LYMPHOCYTE [3]: 90%
- MEAN CORPUSCULAR HEMOGLOBIN [3]: 25.33 pg
- MEAN CORPUSCULAR HEMOGLOBIN CONCENTRATION [3]: 40 G/DL
- MEAN CORPUSCULAR VOLUME [3]: 63.37 fL
- MONOCYTE [3]: 2.33%
- NEUTROPHIL [3]: 7.67%
- NUCLEATED RED BLOOD CELLS [3]: 0 /100WBC
- PLATELET COUNT [3]: 1206.67 x10E3/uL
- ALANINE AMINOTRANSFERASE [3]: 47.67 u/L
- ALBUMIN [3]: 4.17 G/DL
- ALKALINE PHOSPHATASE [3]: 377.33 u/L
- ASPARTATE AMINOTRANSFERASE [3]: 90 u/L
- BLOOD UREA NITROGEN [3]: 13.33 mg/dL
- CARBON DIOXIDE [3]: 31.67 mmol/L
- CHLORIDE [3]: 102.33 MEQ/L
- CHOLESTEROL [3]: 67 mg/dL
- CREATINE PHOSPHOKINASE [3]: 444.67 u/L
- CREATININE [3]: 0.13 mg/dL
- GLUCOSE [3]: 137.33 mg/dL
- LACTATE DEHYDROGENASE [3]: 367.33 u/L
- LIPASE [3]: 11.67 u/L
- PHOSPHORUS [3]: 12.1 mg/dL
- POTASSIUM [3]: 6.36 MEQ/L
- SODIUM [3]: 145.43 MEQ/L
- TOTAL BILIRUBIN [3]: 0.17 mg/dL
- TOTAL PROTEIN [3]: 5.9 G/DL
- URIC ACID [3]: 1.6 mg/dL

From ChEMBL document CHEMBL3885881, “DrugMatrix”
